Measured values reported in article PMC7494974, “Olfactory Reception of Host Alarm Pheromone Component by the Odorant-Binding Proteins in the Samurai Wasp, Trissolcus japonicus (Hymenoptera: Scelionidae)” (Frontiers in Physiology, 2020).

Legend:
Assay type in all cases: binding
TjapOBP3 [1] = molecular target: T1, TjapOBP3 (Trissolcus japonicus, UniProt A0A7G6J4J9); assay: fluorescence titration, Scatchard; conditions: 50 mM Tris-HCl pH 7.4; excitation 337 nm; fluorescent probe
T1 construct: gene OBP3; mature, signal peptide removed; E. coli BL21; His-tag cleaved; ~15 kDa on SDS-PAGE; classical OBP; by primers starts KLSVPQLK and ends CWYHKNPEMYIFP
T1 sequence (A0A7G6J4J9 22-142): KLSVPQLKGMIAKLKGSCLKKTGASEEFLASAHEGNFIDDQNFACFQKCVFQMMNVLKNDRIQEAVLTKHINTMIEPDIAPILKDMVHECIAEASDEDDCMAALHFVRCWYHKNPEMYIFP

TjapOBP2 [2] = molecular target: T2, TjapOBP2 (Trissolcus japonicus, UniProt A0A7G6J4J8); assay: fluorescence titration, Scatchard; conditions: 50 mM Tris-HCl pH 7.4; excitation 337 nm; fluorescent probe
T2 construct: gene OBP2; mature, signal peptide removed; E. coli BL21; His-tag cleaved; ~15 kDa on SDS-PAGE; classical OBP; by primers starts KRPDFIDDDM and ends QCIINNCPEMWFIV
T2 sequence (A0A7G6J4J8 23-142): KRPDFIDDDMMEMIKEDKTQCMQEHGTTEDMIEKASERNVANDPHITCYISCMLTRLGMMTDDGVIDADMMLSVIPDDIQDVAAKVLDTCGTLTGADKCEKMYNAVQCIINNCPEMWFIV

TjapOBP2 [3] = molecular target: T2, TjapOBP2; assay: competitive fluorescence displacement of 1-NPN
TjapOBP3 [4] = molecular target: T1, TjapOBP3; assay: competitive fluorescence displacement of 1-NPN; conditions: 50 mM Tris-HCl pH 7.4; excitation 337 nm; competitive with 1-NPN

Structure (SMILES)	K1-NPN (TjapOBP3 [1])	K1-NPN (TjapOBP2 [2])	IC50 (TjapOBP2 [3]) [µM]	competitive fluorescence displacement of 1-NPN (TjapOBP3 [4])
c1ccc(Nc2cccc3ccccc23)cc1 [1-NPN]	The fluorescent probe 1-NPN was used to bind the selected OBPs	The fluorescent probe 1-NPN was used to bind the selected OBPs		
CCCCCCC/C=C/C=O [(E)-2-decenal]			7.92 ± 1.03	TjapOBP1 and TjapOBP3 had a weak ability to bind (E)-2-decenal
